Results: US20250222120A1, “SYNTHESIS OF NOVEL SMALL MOLECULE CARM1 DEGRADERS, COMPOUNDS FORMED THEREBY, AND PHARMACEUTICAL COMPOSITIONS CONTAINING THEM” (Wisconsin Alumni Research Foundation, priority 2024, published 2025)

What was measured:
CARM1 [1] = target: T1, CARM1 (Homo sapiens, UniProt Q86X55); test: CARM1 degradation by western blot in BT474 cells; assay type: cell-based; conditions: ER+/HER2+ BT474 cells, 0.5 μM, after 24 or 48 h
T1 sequence (Q86X55 1-608): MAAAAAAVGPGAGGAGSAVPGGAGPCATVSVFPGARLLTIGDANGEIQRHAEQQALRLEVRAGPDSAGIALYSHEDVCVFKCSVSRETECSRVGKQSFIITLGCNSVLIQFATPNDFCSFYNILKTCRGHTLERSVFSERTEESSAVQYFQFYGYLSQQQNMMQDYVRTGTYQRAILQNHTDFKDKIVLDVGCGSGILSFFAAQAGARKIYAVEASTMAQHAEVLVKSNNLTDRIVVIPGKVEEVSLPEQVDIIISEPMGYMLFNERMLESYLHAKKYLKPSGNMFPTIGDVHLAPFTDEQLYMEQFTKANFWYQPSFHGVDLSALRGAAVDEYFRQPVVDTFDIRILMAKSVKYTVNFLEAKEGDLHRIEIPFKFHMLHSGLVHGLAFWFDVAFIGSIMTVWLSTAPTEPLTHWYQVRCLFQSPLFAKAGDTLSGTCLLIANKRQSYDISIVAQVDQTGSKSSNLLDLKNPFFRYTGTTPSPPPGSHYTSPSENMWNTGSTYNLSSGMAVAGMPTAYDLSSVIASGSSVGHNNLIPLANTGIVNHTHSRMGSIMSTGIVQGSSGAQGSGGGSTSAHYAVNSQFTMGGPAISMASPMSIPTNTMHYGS
From the text: (§1) FIGS. 7A-7F. […] Cell lysates were collected and CARM1, methyl-BAF155, total BAF155, methyl-PABP1, and total PABP1 levels were detected by Western blot. […] Cell lysates were collected and CARM1, methyl-BAF155, total BAF155 levels were detected by Western blot. […] Cell proliferation rate normalized to day 0 was plotted. […] Migrated cells were stained with 1% crystal violet and the percentage of migrated cells were plotted. Data mean±s.d. ***. P≤0.001.
(§2) Western Blot Assay. Cells were harvested and washed with Dulbecco's phosphate-buffered saline (PBS), then lysed with 1×RIPA lysis buffer (50 mM Tris pH 7.5, 150 mM NaCl, 1% NP-40, 0.5% sodium deoxycholate, and 0.1% sodium dodecyl sulfate) supplemented with 1 mM phenylmethylsulfonyl fluoride, 10 μg/mL aprotinin, 1 μM leupeptin, and 10 μg/mL pepstatin on ice for 20 min. The supernatant was collected after spinning down at 15000 RPM at 4 degrees Celsius for 10 min. The concentration of whole lysates was quantified using a Bradford assay. 50-75 μg of cell lysates was boiled in 4× Laemmli Loading Dye and boiled at 100 degrees Celsius for 10 min. 25 μg were run in 8% SDS-PAGE gels and transferred to nitrocellulose membranes. Blots were blocked in 5% skim milk in PBST [PBS and 0.1% Tween 20] for 45 min, then incubated with primary antibodies at 4 degrees Celsius overnight. […]

CARM1 [2] = target: T1, CARM1; test: CARM1 degradation by western blot in MCF7 cells; assay type: cell-based; design: Cell lysates were collected and the CARM1 levels were detected by western blots; endogenous in cells; host or cells: MCF7
MCF10A cells = test: Cell proliferation assay, MCF10A cells; assay type: cell-based, human; conditions: 0.5 μM
CARM1 [3] = target: T1, CARM1; test: CARM1 degradation by western blot in MDA-MB-231 cells; assay type: cell-based; conditions: triple-negative MDA-MB-231 cells, 0.5 μM, after 24 or 48 h
From the text: as §1, §2

[4] = system: PABP1 and BAF155 di-methylation by CARM1; test: PABP1 and BAF155 di-methylation (me2a) inhibition in MCF7 cells, western blot; assay type: cell-based, human; conditions: 24 h, 0.1 μM 3b versus 10 μM TP-064
From the text: (See Wang et al. “CARM1 Methylates Chromatin Remodeling Factor BAF155 to Enhance Tumor Progression and Metastasis” Cancer Cell 2014, 25 (1), 21-36; Lee and Bedford. “PABP1 Identified as an Arginine Methyltransferase Substrate Using High-Density Protein Arrays” EMBO Rep. 2002, 3 (3), 268-273.) In fact, asymmetric dimethylation (me2a) of these proteins are routinely investigated for CARM1 inhibitors.
as §2

MDA-MB-231 cells = test: Cell proliferation assay, MDA-MB-231 cells; assay type: cell-based; conditions: 0.5 μM, 7 days
Protocol: Cell Proliferation Assay. Cell proliferation was measured by direct cell count via high contrast brightfield microscopy. MDA-MB-231 cells (3×10^3/well) were seeded in 100 μL of DMEM into the wells of a 96-well plate. Cells were treated with either DMSO, TP-064, or 3b and refreshed every two days. The plate was imaged daily for 7 days using the High-Contrast Brightfield Kit for Label-Free Cell Counting (BioTek) on the BioTek Imager.

CNCCN1CCC(c2cc(CN(C)C(=O)c3cccc(Oc4ccc(OCC(=O)N5CCC(CN6CCC(CN7CCN(CC(=O)N[C@H](C(=O)N8C[C@H](O)C[C@H]8C(=O)N[C@@H](C)c8ccc(-c9scnc9C)cc8)C(C)(C)C)CC7)CC6)CC5)cc4)c3)ccn2)CC1 [Compound 3b, (2S,4R)-1-((S)-3,3-dimethyl-2-(2-(4-((1-((1-(2-(4-(3-(methyl((2-(1-(2-(methylamino)ethyl)piperidin-4-yl)pyridin-4-yl)methyl)carbamoyl)phenoxy)phenoxy)acetyl)piperidin-4-yl)methyl)piperidin-4-yl)methyl)piperazin-1-yl)acetamido)butanoyl)-4-hydroxy-N—((S)-1-(4-(4-methylthiazol-5-yl)phenyl)ethyl)pyrrolidine-2-carboxamide]
CARM1 degradation (CARM1 [1]): effectively degraded
Dmax (CARM1 [2]; MCF7, read-out: Dmax of CARM1 degradation, MCF7 cells, 24 h, western blot, three independent experiments): > 95%
Time after exposure at which CARM1 degradation was observed (CARM1 [2]; MCF7 cells, 0.5 μM, time course): 2 h
CARM1 degradation over time course (CARM1 [2]; MCF7 cells, 0.5 μM, up to 48 h): degradation sustained and further maximized over the course of 48 h
CARM1 degradation activity, rigid linker compared with 2e (CARM1 [2]; MCF7 cells, 0.1, 0.5, 1.0 and 10.0 μM, 24 hours, compared with 2e at 0.5 μM): significantly improved CARM1 degradation activity
Cell proliferation (MCF10A cells): not to inhibit cell proliferation
CARM1 degradation (CARM1 [3]): effectively degraded
Levels of PABP1 and BAF155 me2a inhibition [4]: at least as equivalent to that of 10 μM of TP-064
Cell proliferation (MDA-MB-231 cells): not to inhibit cell proliferation
